Read-outs that look alike come from different tables or passages of the source. Marks after values point to notes of the source that are not given here.
Columns and labels:
[1] = pH of the tested solution; type: physicochemical
[2] = test system: Trichophyton rubrum; assay: Antimicrobial Diffusion Test (blood agar plate, zone of inhibition); type: cell-based
Procedure: (§1) The Antimicrobial Diffusion Test is used to determine the ability of a compound to inhibit growth of an organism. During the course of the test, each compound is treated as an unknown solution with an assigned number. After the data have been collected, the identity of the compound is assigned. In the test, a blood agar plate is inoculated with a known stock organism (fungus or bacteria). One drop of a numbered solution is applied to a freshly inoculated agar plate. A single numbered solution is applied per organism on a plate. The inoculated plate is examined on a daily basis for growth of the organism.
(§2) Areas of no microbial growth, or zones of inhibition are measured in millimeters and documented. If the plate is entirely covered with organism growth, there is no measurable zone of inhibition. After all zones of inhibition with the corresponding organisms and the solution number tested for sensitivity have been documented, each solution number is replaced by the correct solution name. The zones of inhibition are then used to establish relative in vitro resistance and sensitivity of the organism to the solution.

[3] = test system: Candida albicans; assay: as above; type: cell-based
Procedure: as §1, §2

[4] = test system: Staphylococcus aureus; assay: as above; type: cell-based
Procedure: as §1, §2

[5] = test system: Escherichia coli; assay: as above; type: cell-based
Procedure: as §1, §2

[6] = test system: Aspergillus fumigatus; assay: as above; type: cell-based
Procedure: as §1, §2

[7] = test system: Beta Streptococcus; assay: as above; type: cell-based; details: for zone of inhibition at 10000 µM / zone of inhibition at 100000 µM: Streptococcus, read-out: Inhibition, Beta Strep (zone of inhibition / relative potency); for zone of inhibition at 10000 µM: 0.01M (extracts: 0.01M total components)
Procedure: as §1, §2

[8] = test system: Candida albicans, Staphylococcus aureus, Beta Streptococcus, Escherichia coli, Aspergillus fumigatus, and Trichophyton rubrum; assay: Antimicrobial Diffusion Test, all organisms tested; type: cell-based; details: for specificity of inhibitory activities over the organisms tested (in words): summary of Table 1
Procedure: as §1, §2
Table 1 provides data comparing the efficacy of a number of different antimicrobial compounds of the present invention. Compounds were assayed at varying concentrations using the Antimicrobial Diffusion Test described above. Summary for data on the following compounds is listed: 3-n-propylphenol, 3-pentylphenol, 5-propylresorcinol, 3-isobutylphenol, 4-hexylresorcinol, phenol, phenylacetic acid, 3-hydroxoctanoic acid, a reconstituted metapleural gland secretion from Atta sexdens worker ant, a reconstituted metapleural gland secretion from Atta sexdens soldier ant, a reconstituted metapleural gland secretion from Atta cephalotes worker ant, a reconstituted metapleural gland secretion from Atta cephalotes soldier ant, metapleural gland secretion from C. deformis, Mycocide, Tineacide, and Penlac. […]

[9] = test solution 0.01M (extracts: 0.01M total components)
[10] = test solution 0.1M (extracts: 0.1M total components)
[11] = 0.1M (extracts: 0.1M total components), value unmarked
[12] = 0.1M (extracts: 0.1M total components), higher number = greater inhibition
[13] = 0.1M (extracts: 0.1M total components)
[14] = 0.01M, value marked * (footnote not given)
[15] = 0.1M (extracts: 0.1M total components), value marked ** (footnote not given)
[16] = 0.1M, value marked * (footnote not given)
[17] = 0.01M (extracts: 0.01M total components)

| SMILES | pH [1, 9] | pH [1, 10] | Inhibition, Candida Albicans (zone of inhibition / relative potency) [3, 12] [mm] | Inhibition, Staph aureus (zone of inhibition / relative potency) [4, 13] [mm] | Inhibition, E. coli (zone of inhibition / relative potency) [5, 13] [mm] | Inhibition, Asp fumigatus (zone of inhibition / relative potency) [6, 13] [mm] | zone of inhibition at 10000 µM [7] [mm] | zone of inhibition at 100000 µM [7, 13] [mm] | Inhibition, T. rubrum (zone of inhibition / relative potency) [2, 14] | Inhibition, T. rubrum (zone of inhibition / relative potency) [2, 16] | Inhibition, Candida Albicans (zone of inhibition / relative potency) [3, 17] [mm] | also measured |
| --- | --- | --- | --- | --- | --- | --- | --- | --- | --- | --- | --- | --- |
| CCCCCCCC(O)CC(=O)O (centres unmarked) [3-hydroxydecanoic acid] | 6.5 | 6 | 15 | 12 | 13 | 13 | 12 | 11 |  |  |  | Inhibition, T. rubrum (zone of inhibition / relative potency) [2, 11]: 12 mm |
| CCCCCc1cccc(O)c1 [3-pentylphenol] | 6.5 | 6.5 | 21 | 18 | 15 | 25 | 15 | 18 | 16* mm | 65 mm | 15 | Inhibition, T. rubrum (zone of inhibition / relative potency) [2, 15]: 45 mm; side-by-side comparison against Penlac 0.1M on Trichophyton rubrum (in words) ([2]; 0.1M each): unexpectedly superior; Inhibition, Staph aureus (zone of inhibition / relative potency) ([4]; 0.01M): 14 mm; Inhibition, E. coli (zone of inhibition / relative potency) ([5]; 0.01M): 16 mm; Inhibition, Asp fumigatus (zone of inhibition / relative potency) ([6]; 0.01M): 9 mm; inhibition of Aspergillus fumigatus growth (in words) ([6]; 0.1 M, FIG. 5): effective at inhibiting Aspergillus fumigatus growth; spectrum of effectiveness on the microorganisms tested (in words) ([8]; 0.1M, Table 1 row 3): exceptional broad spectrum effectiveness; specificity of inhibitory activities over the organisms tested (in words) [8]: ability to inhibit growth of all organisms tested |
| CCCCCC(O)CC(=O)O (centres unmarked) [3-hydroxoctanoic acid] |  | 6 | 12 |  | 13 |  |  |  |  |  |  | Inhibition, Beta Strep (zone of inhibition / relative potency) [7, 13]: 12 mm |
| CCCCCCCCCC(O)CC(=O)O (centres unmarked) [3-hydroxydodecanoic acid] | 6.5 | 6 | 8 | 9 | 10 | 7 |  | 10 |  |  |  | Inhibition, T. rubrum (zone of inhibition / relative potency) ([2]; 0.01M, value unmarked): 10 mm; Inhibition, T. rubrum (zone of inhibition / relative potency) [2, 11]: 14 mm |
| CCCCCc1cc(O)cc(O)c1 [5-pentylresorcinol] |  | 6.5 | 19 | 16 | 17 | 20 |  | 20 |  | 47* mm |  |  |
| CCCc1cccc(O)c1 [3-n-propylphenol] | 6.5 | 6.5 | 13 | 14 | 17 | 10 |  | 15 | 12* mm | 21 mm | 13 | Inhibition, T. rubrum (zone of inhibition / relative potency) [2, 15]: 14 mm; specificity of inhibitory activities over the organisms tested (in words) [8]: ability to inhibit growth of all organisms tested |
| CCCCCCc1ccc(O)cc1O [4-hexylresorcinol] | 6.5 | 6.5 | 20 | 15 | 15 | 20 | 16 | 17 | 29* mm | 38* mm | 19 | Inhibition, Staph aureus (zone of inhibition / relative potency) ([4]; 0.01M): 16 mm; Inhibition, E. coli (zone of inhibition / relative potency) ([5]; 0.01M): 17 mm; Inhibition, Asp fumigatus (zone of inhibition / relative potency) ([6]; 0.01M): 16 mm |
| O=C(O)Cc1c[nH]c2ccccc12 [indoleacetic acid] |  |  |  |  |  |  |  | 6 |  |  |  |  |
| CCCc1cc(O)cc(O)c1 [5-propylresorcinol] |  | 6.5 | 14 |  | 15 |  |  |  |  | 14* mm |  | zone of inhibition at 100000 µM [7]: 14 mm |
